The inhibition is the relative decrease from the control value, in per cent. What is called CC50 is the concentration at which the toxic effect on the cells reaches its halfway point. Read a high CC50 as lower toxicity to the cells.

In data set [1] the test system is reverse transcriptase (RT). Conditions: literature; cited from earlier work.
For data set [2] the following is noted: literature; cited from earlier work.
For data set [3], the system named is HIV virus. Particulars: after prolonged exposure, literature; cited from earlier work.
The test system of data set [4] is HIV-1 virus (HIV-infected MT4 cells). The experiment in a line: Anti-HIV-1 activity in infected MT4 cells (% IFA positive cells, 6 days). It counts as cell-based, human immunodeficiency virus (HIV-1), LAV-A isolate. As for the experimental part:
(§1) The above % IFA positive cells were determined 6 days after addition of HIV-1 virus. Cell viability is % viable cells relative to mock-treated cells or controls. FIGS. 1-A through D show one of many representative set of data.
An LAV-A isolate of human immunodeficiency virus (HIV-1) was used in this study. LAV-A was originally isolated by Dr. L. Montagnier, Pasteur Institute, Paris, and was obtained from Dr. T. Folks, NIAID.
MT4 cells, 10^7 cells/ml, were infected for 1 hour at 4° C., with stock HIV-1 virus, 0.5 ml stock/10^7 cells.
(§2) The infected cells were then resuspended in a complete medium (RPMI 1640 with 20% FBS, L-glutamine, 2 mM, penicillin, 100 units/ml, and streptomycin, 100 ug/ml). Aliquots were added to 24-well tissue culture plates containing varying concentrations of Compounds I, II, III and IV in complete media. The final cell concentration was 1.5×10^5 cells/ml.
(§3) Positive control wells received no drug. Negative control wells received mock-treated MT4 cells. Cells were incubated at 37° C. in 5% CO2. Media was changed after 3 days with fresh complete media containing the appropriate drug.
The percent HIV-1 viral infection was determined by an immunofluorescence assay (IFA) using heat-inactivated, pooled human anti-sera from HIV-positive patients as the first antibody and goat anti-human IgG conjugated with FITC as the second antibody. This is a standard immunoassay known in the art.
Slides were counterstained with Evans blue to obtain total cell counts from the same slides as is known in the art. Uninfected cells were consistently negative for fluorescence.

For data set [5], the system named is MT4 cells. Nature of the data set: Cytotoxicity to MT4 cells (trypan blue exclusion). Format: cell-based. Conditions: for toxicity to the host cell: MT4 cells. The protocol: as §1, §2, §3
(§4) After 6 days, the viability of the MT4 cells, control or infected, was determined by trypan blue exclusion, which is a standard procedure to determine cell viability.

The subject of data set [6] is billirubin binding site of the protein albumin. Particulars: literature; cited from earlier work.
Data set [7] deals with parainfluenza type 3. Conditions: literature; cited from earlier work.
The test system of data set [8] is herpes simplex viruses. Particulars: literature; cited from earlier work.
In data set [9] the test system is Trypanosoma cruzi. Conditions: literature; cited from earlier work.
Data set [10] deals with Plasmodium falcicarum. Particulars: literature; cited from earlier work.
In data set [11] the test system is herpes simplex virus type II. Conditions: literature; cited from earlier work.
Data set [12] is described as follows: Cytotoxicity to MT4 cells (trypan blue exclusion). Format: cell-based. Conditions: human, mt4 cells; for MCC at 144 h: read-out: concentration at which toxicity to the host cell was shown. As for the experimental part:
as §1, §2, §3, §4

With `Cc1cn([C@H]2C[C@H](N=[N+]=[N-])[C@@H](CO)O2)c(=O)[nH]c1=O` [AZT, 3'-azido-2',3'-dideoxythymidine], in data set [1], the “inhibition of reverse transcriptase” value was “inhibitor of the enzyme reverse transcriptase”. The “toxicity limiting use in HIV-infected patients” value in [2] was “hematologic toxicity limits, and in some cases precludes, the use”. The “development of HIV resistance” value in data set [3] is listed as “may develop resistance”.

`Cc1cc2c(C(C)C)c(O)c(O)c(C=O)c2c(O)c1-c1c(C)cc2c(C(C)C)c(O)c(O)c(C=O)c2c1O` [Compound I, gossypol]: in data set [4] (1 uM, 6 days), the “inhibition of virus replication” value is “approximately 50%”. The “toxicity to the host cell” value in [5] (1 uM) is “significant toxicity to the host cell”. In addition, the “binding to the bilirubin binding site of albumin” value in data set [6] was “bind tightly”. For the same molecule, the “antiviral properties: inactivation of parainfluenza type 3” value in data set [7] is “capable of inactivating”. The “antiviral properties: inactivation of herpes simplex viruses” value in data set [8] is “capable of inactivating”. Further, the “growth of Trypanosoma cruzi” value in data set [9] is on record as “inhibited”. Moreover, the “growth of Plasmodium falcicarum” value in [10] was “inhibited”. The “antiviral activity against herpes simplex virus type II” value in data set [11] is “exhibit antiviral activities”.

On to `CC(=O)Oc1c(-c2c(C)cc3c(C(C)C)c(O)c(O)c(C#N)c3c2OC(C)=O)c(C)cc2c(C(C)C)c(O)c(O)c(C#N)c12` [Compound II, Gossylic nitrile-1,1'-diacetate], for which the inhibition at 50 µM in data set [4] (Human immunodeficiency virus 1, 144 h, 50 uM, 6 days, read-out: inhibition of virus replication) is around 50%. Moreover, the MCC at 144 h in [12] is 250 µM.

In the case of `Cc1cc2c(C(C)C)c(O)c(O)c3c2c(c1-c1c(C)cc2c(C(C)C)c(O)c(O)c4c2c1OC4=N)OC3=N` [Compound III, gossylic iminolactone], the inhibition at 1 µM in data set [4] (Human immunodeficiency virus 1, 144 h, 1 uM, 6 days, read-out: inhibition of virus replication) was around 50%. Moreover, the EC50 in [4] (Human immunodeficiency virus 1, 144 h, read-out: ED50 (the source's name)) turned out to be 1 µM. For the same molecule, in [12], the 50% cytotoxic concentration (CC50) at 144 h lay within 25 to 50 µM and the MCC at 144 h was 50 µM. In data set [5] (until the drug concentration reached 50 uM), the “toxicity to the host cell” value is “no toxicity to the host cell”.

With `Cc1cc2c(C(C)C)c(O)c(O)c3c2c(c1-c1c(C)cc2c(C(C)C)c(O)c(O)c4c2c1OC4=O)OC3=O` [Compound IV, gossylic lactone], the antiviral activity result in data set [4] (below 250 uM) is recorded as “very little antiviral activity”. In addition, the “toxicity to the MT4 cell” value in [5] (250 uM) was “pronounced toxicity”.
